# Measurements from patent publication US20210038607A1, “OXADIAZOLYLTHIOPHENE DERIVATIVES USEFUL AS HISTONE DEACETYLASE INHIBITORS” (Karus Therapeutics Limited, priority 2018, published 2021).
# Experiments:
# [1] = biological target: T1, Human HDAC7 (Homo sapiens, UniProt Q8WUI4); test: HDAC7 biochemical assay, class IIa-specific substrate; details: read-out: HDAC Isoform IC50 (nM) 7
# T1 construct: (a.a. 518-end) with N-terminal GST tag; GST (N); host or cells: baculovirus expression system
# T1 sequence (Q8WUI4 518-952 limits assumed): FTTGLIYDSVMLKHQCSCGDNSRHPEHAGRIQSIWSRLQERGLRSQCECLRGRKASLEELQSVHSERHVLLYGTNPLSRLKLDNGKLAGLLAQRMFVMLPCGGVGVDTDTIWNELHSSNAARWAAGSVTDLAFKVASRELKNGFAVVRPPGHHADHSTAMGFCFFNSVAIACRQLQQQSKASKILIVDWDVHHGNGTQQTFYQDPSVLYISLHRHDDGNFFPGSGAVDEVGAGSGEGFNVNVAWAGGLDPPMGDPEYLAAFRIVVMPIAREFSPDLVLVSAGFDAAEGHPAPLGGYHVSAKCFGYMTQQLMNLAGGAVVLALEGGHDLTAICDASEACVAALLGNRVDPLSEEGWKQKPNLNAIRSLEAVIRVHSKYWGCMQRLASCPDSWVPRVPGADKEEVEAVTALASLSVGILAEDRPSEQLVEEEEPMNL
# Outline: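 Two-step fluorogenic readout: class IIa-selective trifluoroacetyl-lysine AMC substrate (50 μM) deacetylated by N-terminal GST-HDAC7 fragment (0.001 ng/ul), then digested by developer, Ex/Em 360/460. Reaction: 30 min, room temperature, Tris-HCl pH 8.0, NaCl/KCl/MgCl2, 1 mg/mL BSA, 1% DMSO.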
# [2] = biological target: T2, Human HDAC8 (Homo sapiens, UniProt Q9BY41); test: HDAC8 biochemical assay, AMC-labeled peptide substrate; details: read-out: HDAC Isoform IC50 (nM) 8
# T2 construct: full length with C-terminal His tag, MW=42.6 kDa; His (C); host or cells: baculovirus expression system
# T2 sequence (Q9BY41 1-377): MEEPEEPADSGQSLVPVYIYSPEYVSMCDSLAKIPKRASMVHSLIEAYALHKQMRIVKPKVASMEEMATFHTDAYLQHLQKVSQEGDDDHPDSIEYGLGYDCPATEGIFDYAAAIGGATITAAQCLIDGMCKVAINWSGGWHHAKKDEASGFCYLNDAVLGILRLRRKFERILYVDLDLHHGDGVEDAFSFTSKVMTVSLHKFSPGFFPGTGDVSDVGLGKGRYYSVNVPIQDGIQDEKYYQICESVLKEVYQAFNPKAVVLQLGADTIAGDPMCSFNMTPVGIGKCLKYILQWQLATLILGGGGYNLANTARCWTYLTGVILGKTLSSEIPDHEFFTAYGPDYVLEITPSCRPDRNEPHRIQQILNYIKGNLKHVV
# Outline: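 Two-step fluorogenic readout: compounds and enzyme deacetylate 100 µM RHK(Ac)K(Ac)AMC for 2 h at 30° C (pH8.0 Tris buffer, BSA, 1% DMSO final), then developer releases AMC, read at 360/460 Ex/Em. Enzyme: 1 ng/ul full-length His-tagged human HDAC8 from baculovirus.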
# [3] = biological target: T3, Human HDAC11 (Homo sapiens, UniProt Q96DB2); test: HDAC11 biochemical assay, class IIa-specific substrate; details: read-out: HDAC Isoform IC50 (nM) 11
# T3 construct: Human HDAC11 (full length); His (N); host or cells: baculovirus expression system
# T3 sequence (Q96DB2 1-347): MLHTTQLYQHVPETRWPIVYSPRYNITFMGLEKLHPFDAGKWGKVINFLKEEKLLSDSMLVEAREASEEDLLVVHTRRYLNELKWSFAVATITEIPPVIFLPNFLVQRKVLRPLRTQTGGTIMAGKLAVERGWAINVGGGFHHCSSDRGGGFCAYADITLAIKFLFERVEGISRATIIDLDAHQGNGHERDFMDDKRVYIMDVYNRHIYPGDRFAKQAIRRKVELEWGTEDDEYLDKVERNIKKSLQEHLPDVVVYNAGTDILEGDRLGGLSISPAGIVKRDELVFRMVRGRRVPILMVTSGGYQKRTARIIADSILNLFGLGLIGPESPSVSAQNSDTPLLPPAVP
# Outline: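 Full-length N-His human HDAC11 from baculovirus, 5 ng/μl, incubated with 50 μM Boc-Lys(trifluoroacetyl)-AMC for 30 min at 30 °C. Buffer: 50 mM Tris-HCl pH 8.0, 137 mM NaCl, 2.7 mM KCl, 1 mM MgCl2, 1 mg/mL BSA, 1% DMSO. Developer releases AMC; fluorescence read at 360/460 nm.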
Compound,IC50 [1],IC50 [2],IC50 [3]
"FC(F)(F)c1cnnc(N(Cc2ccc(-c3noc(C(F)(F)F)n3)s2)c2cnccn2)c1 [Example EF, N-(Pyrazin-2-yl)-5-(trifluoromethyl)-N-({5-[5-(trifluoromethyl)-1,2,4-oxadiazol-3-yl]thiophen-2-yl}methyl)pyridazin-3-amine]",≤ 10000 nM,≤ 10000 nM,> 10000 nM
"O=C(c1nccnc1N(Cc1ccc(-c2noc(C(F)(F)F)n2)s1)c1cnccn1)N1CC(O)(C(F)(F)F)C1 [Example GQ, 1-{3-[(Pyrazin-2-yl)({5-[5-(trifluoromethyl)-1,2,4-oxadiazol-3-yl]thiophen-2-yl}methyl)amino]pyrazine-2-carbonyl}-3-(trifluoromethyl)azetidin-3-ol]",≤ 10000 nM,≤ 10000 nM,> 10000 nM
"O=C(c1ccc(N(Cc2ccc(-c3noc(C(F)(F)F)n3)s2)c2cnccn2)nn1)N1CC(O)(C(F)(F)F)C1 [Example FK, 1-{6-[(Pyrazin-2-yl)({5-[5-(trifluoromethyl)-1,2,4-oxadiazol-3-yl]thiophen-2-yl}methyl)amino]pyridazine-3-carbonyl}-3-(trifluoromethyl)azetidin-3-ol]",≤ 500 nM,≤ 1000 nM,> 10000 nM
"Cc1cnc(N(Cc2ccc(-c3noc(C(F)(F)F)n3)s2)c2cnccn2)cn1 [Example BH, 5-Methyl-N-(pyrazin-2-yl)-N-({5-[5-(trifluoromethyl)-1,2,4-oxadiazol-3-yl]thiophen-2-yl}methyl)pyrazin-2-amine]",≤ 1000 nM,≤ 10000 nM,> 10000 nM
"NC(=O)c1nccnc1N(Cc1ccc(-c2noc(C(F)(F)F)n2)s1)c1cnccn1 [Example GO, 3-[(Pyrazin-2-yl)({5-[5-(trifluoromethyl)-1,2,4-oxadiazol-3-yl]thiophen-2-yl}methyl)amino]pyrazine-2-carboxamide]",≤ 10000 nM,≤ 10000 nM,> 10000 nM
"CN1CCN(C(=O)c2cnnc(N(Cc3ccc(-c4noc(C(F)(F)F)n4)s3)c3cnccn3)c2)CC1 [Example EC, 5-(4-Methylpiperazine-1-carbonyl)-N-(pyrazin-2-yl)-N-({5-[5-(trifluoromethyl)-1,2,4-oxadiazol-3-yl]thiophen-2-yl}methyl)pyridazin-3-amine]",≤ 1000 nM,≤ 10000 nM,> 10000 nM
"O=C(c1cnnc(N(Cc2ccc(-c3noc(C(F)(F)F)n3)s2)c2cnccn2)c1)N1CCS(=O)(=O)CC1 [Example ED, 4-{6-[(Pyrazin-2-yl)({5-[5-(trifluoromethyl)-1,2,4-oxadiazol-3-yl]thiophen-2-yl}methyl)amino]pyridazine-4-carbonyl}-1λ^6-thiomorpholine-1,1-dione]",≤ 10000 nM,≤ 10000 nM,> 10000 nM
"O=C(c1nccnc1N(Cc1ccc(-c2noc(C(F)(F)F)n2)s1)c1cnccn1)N1CCC1 [Example GP, 3-(Azetidine-1-carbonyl)-N-(pyrazin-2-yl)-N-({5-[5-(trifluoromethyl)-1,2,4-oxadiazol-3-yl]thiophen-2-yl}methyl)pyrazin-2-amine]",≤ 10000 nM,≤ 10000 nM,> 10000 nM
"COc1cnc(N(Cc2ccc(-c3noc(C(F)(F)F)n3)s2)c2cnccn2)cn1 [Example BI, 5-Methoxy-N-(pyrazin-2-yl)-N-({5-[5-(trifluoromethyl)-1,2,4-oxadiazol-3-yl]thiophen-2-yl}methyl)pyrazin-2-amine]",≤ 500 nM,≤ 10000 nM,> 10000 nM
"FC(F)(F)c1nc(-c2ccc(CN(c3cnccn3)c3ncccn3)s2)no1 [Example AS, N-(Pyrimidin-2-yl)-N-({5-[5-(trifluoromethyl)-1,2,4-oxadiazol-3-yl]thiophen-2-yl}methyl)pyrazin-2-amine]",≤ 10000 nM,≤ 10000 nM,> 10000 nM
